# Measured values reported in BindingDB's records for doi:10.1021/jm040190e (National Institute On Drug Abuse-Intramural Research Program, 2005).
# Test: Mitogenic stimulation or antagonism of 30 nM quinpirole-stimulated mitogenesis in CHO cells expressing human dopamine D3 receptor
row,SMILES,IC50
1,"O=C(NC/C=C/CN1CCN(c2cccc(Cl)c2Cl)CC1)c1ccc(I)cc1 [N-{4-[4-(2,3-Dichloro-phenyl)-piperazin-1-yl]-but-2-enyl}-4-iodo-benzamide]",24.1 nM
2,"O=C(NC/C=C/CN1CCN(c2cccc(Cl)c2Cl)CC1)c1ccc(O)cc1 [N-{4-[4-(2,3-Dichloro-phenyl)-piperazin-1-yl]-but-2-enyl}-4-hydroxy-benzamide]",1 nM
3,"COc1ccc(C(=O)NC/C=C/CN2CCN(c3cccc(Cl)c3Cl)CC2)cc1 [N-{4-[4-(2,3-Dichloro-phenyl)-piperazin-1-yl]-but-2-enyl}-4-methoxy-benzamide]",4.79 nM
4,"O=C(NC/C=C/CN1CCN(c2cccc(Cl)c2Cl)CC1)c1ccc2c(c1)Cc1ccccc1-2 [N-(4-(4-(2,3-dichlorophenyl)piperazin-1-yl)but-2-enyl)-9H-fluorene-2-carboxamide]",173 nM

# Now from value to compound:
row,IC50,SMILES
1,2.2 nM,"O=C(NC/C=C/CN1CCN(c2cccc(Cl)c2Cl)CC1)c1ccc([N+](=O)[O-])cc1 [N-{(E)-4-[4-(2,3-Dichloro-phenyl)-piperazin-1-yl]-but-2-enyl}-4-nitro-benzamide]"
2,6.31 nM,"O=C(NCCCCN1CCN(c2cccc(Cl)c2Cl)CC1)c1ccc(-c2ccccn2)cc1 [N-{4-[4-(2,3-Dichloro-phenyl)-piperazin-1-yl]-butyl}-4-pyridin-2-yl-benzamide]"
